From PubChem BioAssay (NCI)
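Interpolation was linear, between the two tested concentrations surrounding the appropriate level; five concentrations were tested over 48 hours in 96-well plates. GI50 is the concentration that inhibits growth by half. TGI denotes the concentration required for complete inhibition of growth.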

What was measured:
Assay in all cases: inhibition of tumour cell growth, NCI panel, 48 h
[1] = tested on: DMS 273 small cell lung
[2] = tested on: A498 renal
[3] = tested on: SF-539 CNS
[4] = tested on: HOP-92 NSCLC
[5] = tested on: UO-31 renal
[6] = tested on: IGROV1 ovarian
[7] = tested on: KM12 colon
[8] = tested on: NCI-H23 lung
[9] = tested on: SK-MEL-28 melanoma
[10] = tested on: UACC-62 melanoma
[11] = tested on: HCC-2998 colon
[12] = tested on: HCT-15 colon
[13] = tested on: CCRF-CEM leukemia
[14] = tested on: NCI-H522 lung
[15] = tested on: NCI-H460 lung
[16] = tested on: OVCAR-3 ovarian
[17] = tested on: SW-620 colon
[18] = tested on: UACC-257 melanoma
[19] = tested on: SF-295 CNS
[20] = tested on: KM20L2 colon
[21] = tested on: COLO 205 colon
[22] = tested on: OVCAR-5 ovarian
[23] = tested on: LOX IMVI melanoma
[24] = tested on: SR leukemia
[25] = tested on: NCI-H226 lung
[26] = tested on: EKVX NSCLC
[27] = tested on: SK-MEL-5 melanoma
[28] = tested on: M14 melanoma
[29] = tested on: SN12C renal
[30] = tested on: RXF 393 renal
[31] = tested on: SNB-75 CNS
[32] = tested on: MOLT-4 leukemia
[33] = tested on: HL-60(TB) leukemia
[34] = tested on: MALME-3M melanoma
[35] = tested on: HT29 colon
[36] = tested on: TK-10 renal
[37] = tested on: ACHN renal
[38] = tested on: DLD-1 colon
[39] = tested on: SNB-19 CNS
[40] = tested on: 786-0 renal
[41] = tested on: M19-MEL melanoma
[42] = tested on: SF-268 CNS
[43] = tested on: U251 CNS
[44] = tested on: LXFL 529 NSCLC
[45] = tested on: HOP-62 NSCLC
[46] = tested on: A549 NSCLC
[47] = tested on: CAKI-1 renal
[48] = tested on: HCT-116 colon
[49] = tested on: OVCAR-4 ovarian
[50] = tested on: OVCAR-8 ovarian
[51] = tested on: K-562 leukemia
[52] = tested on: HOP-18 NSCLC

SMILES: CC(=O)[O-].[Mn+3].[O-]c1ccccc1C=NCCN=Cc1ccccc1[O-]
- GI50 [1]: > 100 µM
- TGI [1]: > 100 µM
- GI50 [2]: > 100 µM
- TGI [2]: > 100 µM
- GI50 [3]: > 100 µM
- TGI [3]: > 100 µM
- GI50 [4]: > 100 µM
- TGI [4]: > 100 µM
- GI50 [5]: > 100 µM
- TGI [5]: > 100 µM
- GI50 [6]: > 100 µM
- TGI [6]: > 100 µM
- GI50 [7]: 84.9 µM
- TGI [7]: > 100 µM
- GI50 [8]: 58.9 µM
- TGI [8]: > 100 µM
- GI50 [9]: > 100 µM
- TGI [9]: > 100 µM
- GI50 [10]: > 100 µM
- TGI [10]: > 100 µM
- GI50 [11]: > 100 µM
- TGI [11]: > 100 µM
- GI50 [12]: 41.9 µM
- TGI [12]: > 100 µM
- GI50 [13]: 25.1 µM
- TGI [13]: > 100 µM
- GI50 [14]: 16 µM
- TGI [14]: > 100 µM
- GI50 [15]: 44.4 µM
- TGI [15]: > 100 µM
- GI50 [16]: 17 µM
- TGI [16]: > 100 µM
- GI50 [17]: > 100 µM
- TGI [17]: > 100 µM
- GI50 [18]: 51.2 µM
- TGI [18]: > 100 µM
- GI50 [19]: > 100 µM
- TGI [19]: > 100 µM
- GI50 [20]: 56.2 µM
- TGI [20]: > 100 µM
- GI50 [21]: > 100 µM
- TGI [21]: > 100 µM
- GI50 [22]: 96.4 µM
- TGI [22]: > 100 µM
- GI50 [23]: > 100 µM
- TGI [23]: > 100 µM
- GI50 [24]: 70.9 µM
- TGI [24]: > 100 µM
- GI50 [25]: > 100 µM
- TGI [25]: > 100 µM
- GI50 [26]: > 100 µM
- TGI [26]: > 100 µM
- GI50 [27]: 94.8 µM
- TGI [27]: > 100 µM
- GI50 [28]: > 100 µM
- TGI [28]: > 100 µM
- GI50 [29]: > 100 µM
- TGI [29]: > 100 µM
- GI50 [30]: > 100 µM
- TGI [30]: > 100 µM
- GI50 [31]: > 100 µM
- TGI [31]: > 100 µM
- GI50 [32]: 25.7 µM
- TGI [32]: > 100 µM
- GI50 [33]: 19.2 µM
- TGI [33]: > 100 µM
- GI50 [34]: > 100 µM
- TGI [34]: > 100 µM
- GI50 [35]: 92.3 µM
- TGI [35]: > 100 µM
- GI50 [36]: > 100 µM
- TGI [36]: > 100 µM
- GI50 [37]: > 100 µM
- TGI [37]: > 100 µM
- GI50 [38]: 56.5 µM
- TGI [38]: > 100 µM
- GI50 [39]: > 100 µM
- TGI [39]: > 100 µM
- GI50 [40]: > 100 µM
- TGI [40]: > 100 µM
- GI50 [41]: 44.2 µM
- TGI [41]: > 100 µM
- GI50 [42]: 11.1 µM
- TGI [42]: > 100 µM
- GI50 [43]: > 100 µM
- TGI [43]: > 100 µM
- GI50 [44]: 50.7 µM
- TGI [44]: > 100 µM
- GI50 [45]: > 100 µM
- TGI [45]: > 100 µM
- GI50 [46]: > 100 µM
- TGI [46]: > 100 µM
- GI50 [47]: > 100 µM
- TGI [47]: > 100 µM
- GI50 [48]: 95.5 µM
- TGI [48]: > 100 µM
- GI50 [49]: > 100 µM
- TGI [49]: > 100 µM
- GI50 [50]: > 100 µM
- TGI [50]: > 100 µM
- GI50 [51]: 30.3 µM
- TGI [51]: > 100 µM
- GI50 [52]: > 100 µM
- TGI [52]: > 100 µM
